In patent publication US20210114983A1, “Cathepsin C inhibitors” (National Institute of Biological Sciences, Beijing, priority 2018, published 2021):

Molecular target: rhCatC (Cathepsin C) (Homo sapiens, UniProt P53634)
Assay: In Vitro CatC Enzyme Assay
Type: biochemical
Conditions: read-out: Cat C Enzy (Cathepsin C inhibitory activity, IC50)
Procedure: In Vitro CatC Enzyme Assay
The CatC enzyme assay was performed in black 384-well plate. Firstly, rhCatC (440 nM) was activated by rhCatL (300 nM) in activation buffer (25 mM MES, 5 mM DTT, pH 6.0) at room temperature for 2 h and then activated rhCatC was diluted to 4.4 nM in assay buffer (25 mM MES, 50 mM NaCl, 5 mM DTT, 0.01% (v/v) Triton X100, pH 6.0), 14 μL activated rhCatC and 1 μL compound in 10% DMSO or 10% DMSO were incubated at room temperature for 3 h, and 5 μL substrate (Gly-Phe-AFC) was added to final concentration of 100 μM. After 60 min reaction, the product of the reaction was measured in the Enspire plate reader using Ex λ400 nm and Em λ505 nm for AFC. A standard irreversible CatC inhibitor 10 by AstraZeneca (J. Med. Chem. 2014, 57, 2357-2367) was used as an inhibitor control in the assay.

Sequence of rhCatC (Cathepsin C) (P53634 25-134 limits assumed): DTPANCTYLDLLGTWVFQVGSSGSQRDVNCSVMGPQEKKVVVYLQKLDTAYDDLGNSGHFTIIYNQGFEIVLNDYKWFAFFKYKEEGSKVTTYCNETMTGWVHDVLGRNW
Sequence of rhCatC (Cathepsin C) (P53634 231-394 limits assumed): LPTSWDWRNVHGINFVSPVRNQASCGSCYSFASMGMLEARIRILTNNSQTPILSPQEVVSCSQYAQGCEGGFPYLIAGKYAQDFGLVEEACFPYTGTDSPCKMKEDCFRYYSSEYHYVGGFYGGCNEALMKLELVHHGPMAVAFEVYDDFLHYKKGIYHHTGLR
Sequence of rhCatC (Cathepsin C) (P53634 395-463 limits assumed): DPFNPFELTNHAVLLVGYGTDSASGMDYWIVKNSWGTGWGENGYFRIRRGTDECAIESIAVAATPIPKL

| IC50 [µM] | SMILES |
| --- | --- |
| 0.003 to 0.3 | C=CC(=O)Nc1cc(Oc2nc(Nc3ccc(N4CCN(C)CC4)cc3OC)ccc2N2CCCC2)ccc1OC [Compound 39, N-(2-methoxy-5-((6-((2-methoxy-4-(4-methylpiperazin-1-yl)phenyl)amino)-3-(pyrrolidin-1-yl)pyridin-2-yl)oxy)phenyl)acrylamide] |
| 0.003 to 0.3 | C=CC(=O)Nc1cc(Oc2nc(Nc3ccc(N4CCN(C)CC4)cc3OC)ccc2Cl)ccc1C(F)(F)F [Compound 50, N-(5-((3-chloro-6-((2-methoxy-4-(4-methylpiperazin-1-yl)phenyl)amino)pyridin-2-yl)oxy)-2-(trifluoromethyl)phenyl)acrylamide] |
| 0.003 to 0.3 | C=CC(=O)Nc1cccc(Oc2nc(Nc3ccc(N4CCN(C)CC4)cc3OC)ccc2N2CCCCC2)c1 [Compound 52, N-(3-((6-((2-methoxy-4-(4-methylpiperazin-1-yl)phenyl)amino)-3-(piperidin-1-yl)pyridin-2-yl)oxy)phenyl)acrylamide] |
| 0.3 to 30 | C=CC(=O)Nc1cccc(Oc2nc(N(Cc3ccccc3)c3ccc(N4CCNCC4)cc3)ccc2Cl)c1 [Compound 27, N-(3-((6-(benzyl(4-(piperazin-1-yl)phenyl)amino)-3-chloropyridin-2-yl)oxy)phenyl)acrylamide] |
| 0.3 to 30 | C=CC(=O)Nc1cc(Oc2nc(Nc3ccc(N4CCC(N(C)C)CC4)cn3)ccc2N2CCCCC2)ccc1C [Compound 55] |
| 0.3 to 30 | C=C(F)C(=O)Nc1cc(Oc2nc(Nc3ccc(N4CCN(C)CC4)cc3OC)ccc2N2CCCCC2)ccc1C [Compound 49, 2-fluoro-N-(5-((6-((2-methoxy-4-(4-methylpiperazin-1-yl)phenyl)amino)-3-(piperidin-1-yl)pyridin-2-yl)oxy)-2-methylphenyl)acrylamide] |
| 0.3 to 30 | C=CC(=O)Nc1cccc(N(Cc2ccccc2)c2cccc(Nc3ccc(N4CCN(C)CC4)cc3OC)n2)c1 [Compound 25, N-(3-(benzyl(6-((2-methoxy-4-(4-methylpiperazin-1-yl)phenyl)amino)pyridin-2-yl)amino)phenyl)acrylamide] |
| 0.003 to 0.3 | C=CC(=O)Nc1cc(Oc2nc(Nc3ccc(N4CCN(C)CC4)cc3OC)ccc2N2CCCCC2)ccc1C(F)(F)F [Compound 45] |
| 0.003 to 0.3 | C=CC(=O)Nc1cc(Oc2nc(Nc3ccc(N4CCN(C)CC4)cc3OC)ccc2N2CCCC2)ccc1C [Compound 29, N-(5-((6-((2-methoxy-4-(4-methylpiperazin-1-yl)phenyl)amino)-3-(pyrrolidin-1-yl)pyridin-2-yl)oxy)-2-methylphenyl)acrylamide] |
| 0.3 to 30 | C=CC(=O)Nc1cc(Oc2cccc(Nc3ccc(N4CCN(C)CC4)cc3OC)n2)ccc1OC [Compound 40, N-(2-methoxy-5-((6-((2-methoxy-4-(4-methylpiperazin-1-yl)phenyl)amino)pyridin-2-yl)oxy)phenyl)acrylamide] |
| 0.003 to 0.3 | C=CC(=O)Nc1cc(Oc2nc(Nc3ccc(N4CCN(C)CC4)cc3OC)ccc2N2CCN(C)CC2)ccc1C [Compound 33, N-(5-((6-((2-methoxy-4-(4-methylpiperazin-1-yl)phenyl)amino)-3-(4-methylpiperazin-1-yl)pyridin-2-yl)oxy)-2-methylphenyl)acrylamide] |
| 0.3 to 30 | C=CC(=O)Nc1cccc(Oc2nc(N(C)c3ccc(N4CCNCC4)cc3)ccc2Cl)c1 [Compound 26] |
| 0.003 to 0.3 | C=CC(=O)Nc1cc(Oc2nc(Nc3ccc(N4CCN(C(C)=O)CC4)cc3OC)ccc2N2CCCCC2)ccc1C [Compound 36, N-(5-((6-((4-(4-acetylpiperazin-1-yl)-2-methoxyphenyl)amino)-3-(piperidin-1-yl)pyridin-2-yl)oxy)-2-methylphenyl)acrylamide] |
| 0.003 to 0.3 | C#CC(=O)Nc1cc(Oc2nc(Nc3ccc(N4CCN(C)CC4)cc3OC)ccc2N2CCCCC2)ccc1C [Compound 48, N-(5-((6-((2-methoxy-4-(4-methylpiperazin-1-yl)phenyl)amino)-3-(piperidin-1-yl)pyridin-2-yl)oxy)-2-methylphenyl)propiolamide] |

Continued, compound first:

| SMILES | IC50 [µM] |
| --- | --- |
| C=CC(=O)Nc1cccc(Oc2nc(Nc3ccc(N4CCN(C)CC4)c(OC)c3)ccc2Cl)c1 [Compound 11, N-(3-((3-chloro-6-((3-methoxy-4-(4-methylpiperazin-1-yl)phenyl)amino)pyridin-2-yl)oxy)phenyl)acrylamide] | 0.3 to 30 |
| C=CC(=O)Nc1cccc(Oc2nc(Nc3ccc(N4CCN(C)CC4)cc3OC)ccc2N(C)C)c1 [Compound 22, N-(3-((3-(dimethylamino)-6-((2-methoxy-4-(4-methylpiperazin-1-yl)phenyl)amino)pyridin-2-yl)ox)phenyl)acrylamide] | 0.3 to 30 |
| C=CC(=O)Nc1cccc(Oc2nc(Nc3ccccc3)ccc2Cl)c1 [Compound 3, N-(3-((3-chloro-6-(phenylamino)pyridin-2-yl)oxy)phenyl)acrylamide] | 0.3 to 30 |
| C=CC(=O)Nc1cccc(Oc2nc(Nc3ccc(N4CCN(C)CC4)cc3)ccc2Cl)c1 [Compound 4, N-(3-((3-chloro-6-((4-(4-methylpiperazin-1-yl)phenyl)amino)pyridin-2-yl)oxy)phenyl)acrylamide] | 0.3 to 30 |
| C=CC(=O)Nc1cccc(Oc2nc(Nc3ccc(N4CCN(C)CC4)cc3OC)ccc2C#N)c1 [Compound 17, N-(3-((3-cyano-6-((2-methoxy-4-(4-methylpiperazin-1-yl)phenyl)amino)pyridin-2-yl)oxy)phenyl)acrylamide] | 0.3 to 30 |
| C=CC(=O)Nc1cccc(Oc2nc(Nc3ccc(CCN)cc3)ccc2Cl)c1 [Compound 10, N-(3-((6-((4-(2-aminoethyl)phenyl)amino)-3-chloropyridin-2-yl)oxy)phenyl)acrylamide] | 0.3 to 30 |
| C=CC(=O)Nc1cccc(Oc2nc(Nc3ccc(N4CCOCC4)cc3)ccc2Cl)c1 [Compound 2, N-(3-((3-chloro-6-((4-morpholinophenyl)amino)pyridin-2-yl)oxy)phenyl)acrylamide] | 0.3 to 30 |
| C=CC(=O)Nc1cccc(Nc2nc(Nc3ccc(N4CCN(C)CC4)cc3OC)ccc2Cl)c1 [Compound 19, N-(3-((3-chloro-6-((2-methoxy-4-(4-methylpiperazin-1-yl)phenyl)amino)pyridin-2-yl)amino)phenyl)acrylamide] | 0.3 to 30 |
| C/C=C/C(=O)Nc1cccc(Oc2nc(Nc3ccc(N4CCNCC4)cc3)ccc2Cl)c1 [Compound 8] | 0.3 to 30 |
| C=CC(=O)Nc1cccc(Oc2nc(Nc3ccc(N4CCNCC4)cc3)ccc2Cl)c1 [Compound 7, N-(3-((3-chloro-6-((4-(piperazin-1-yl)phenyl)amino)pyridin-2-yl)oxy)phenyl)acrylamide] | 0.3 to 30 |
| COc1cc(N2CCN(C)CC2)ccc1Nc1ccc(Cl)c(Oc2cccc(NC(=O)C=C(C)C)c2)n1 [Compound 12, N-(3-((3-chloro-6-((2-methoxy-4-(4-methylpiperazin-1-yl)phenyl)amino)pyridin-2-yl)oxy)phenyl)-3-methylbut-2-enamide] | 0.3 to 30 |
| C=CC(=O)Nc1cccc(Oc2nc(Nc3ccc(N4CCN(CC5CCCC5)CC4)cc3)ccc2Cl)c1 [Compound 15, N-(3-((3-chloro-6-((4-(4-(cyclopentylmethyl)piperazin-1-yl)phenyl)amino)pyridin-2-yl)oxy)phenyl)acrylamide] | 0.3 to 30 |
| C=CC(=O)Nc1cc(Oc2nc(Nc3ccc(N4CCN(C)CC4)cc3OC)ccc2Cl)ccc1C [Compound 18, N-(5-((3-chloro-6-((2-methoxy-4-(4-methylpiperazin-1-yl)phenyl)amino)pyridin-2-yl)oxy)-2-methylphenyl)acrylamide] | 0.3 to 30 |
